Key:
A549 xenograft tumors = experiment: Cisplatin treatment of xenograft tumors from wild type and ME2 knockdown A549 cells; format: in vivo, athymic nude mice
Experimental: ME2 knockdown and control cells were plated in 6-well plates, and 24 h later, the cell were treated with 20 μM cisplatin. After 72 h, cells were stained with trypan blue and live cells were counted. […] Approximately 5×10^6 ME2 deficient cells from ME2 specific shRNA or control pLKO cells were subcutaneously implanted into female athymic nude mice as described in Materials and Methods. Tumor size was measured and calculated. C: Depletion of ME2 inhibits mucin-1 and vimentin expression and increase differentiation marker E-cadherin and ZO-1 expression in vivo. Animal experiments were performed under federal guidelines and approved by the Institutional Animal Care and Use Committee (IACUC) of the Beth Israel Deaconess Medical Center (Approval number 0342007). A549 xenografts in nude mice were generated by following the description of […] et al., in Biochem. Pharmacol. 72: 671-680 (2006). Briefly, approximately 10^7 ME2 deficient or control A549 cells resuspended in 200 μl of a serum-free culture medium/Matrigel mixture (1:1) were subcutaneously injected into the right and left flanks of male nude/nu/nu athymic mice, respectively. Tumor-bearing mice were sacrificed after 6-8 weeks and tumor masses were measured or imaged before excision. […]

A549 cells = experiment: Cisplatin treatment of A549 cells with or without ME2 knockdown, trypan blue count; format: cell-based, human; conditions: 20 μM cisplatin, 72 h
Experimental: ME2 knockdown and control cells were plated in 6-well plates, and 24 h later, the cell were treated with 20 μM cisplatin. After 72 h, cells were stained with trypan blue and live cells were counted. […] Approximately 5×10^6 ME2 deficient cells from ME2 specific shRNA or control pLKO cells were subcutaneously implanted into female athymic nude mice as described in Materials and Methods. Tumor size was measured and calculated. C: Depletion of ME2 inhibits mucin-1 and vimentin expression and increase differentiation marker E-cadherin and ZO-1 expression in vivo.

K562 cell = conditions: supplementation; Ren et al., PLoS One 5 (2010); cited from earlier work

| SMILES | later growth of ME2 knockdown tumors (resumed at about 350 mm^3) (A549 xenograft tumors; ME2 knockdown A549 xenografts) | E-cadherin and mucin-1 expression in vivo (A549 xenograft tumors; combination of ME2 depletion and cisplatin) | sensitivity of A549 cells to cisplatin treatment with ME2 deficiency (A549 cells) | K562 cell differentiation (K562 cell) |
| --- | --- | --- | --- | --- |
| N.N.[Cl][Pt][Cl] [cisplatin] | prevent this later tumor growth | affected | increased the sensitivity |  |
| O=C([O-])CC(O)C(=O)[O-].[Na+].[Na+] (stereo not shown) [sodium malate] |  |  |  | failed to induce |

— patent publication US9931313B2, “Methods of treating proliferative disorders with malate or derivatives thereof” (Beth Israel Deaconess Medical Center, Inc., priority 2012, dated 2018)
